Measured values published in patent publication EP4678638A1, “NEW E3 UBIQUITIN LIGASE LIGAND, PROTEIN DEGRADATION AGENT AND USE THEREOF” (priority 2023, dated 2024).
Each block holds one compound with its values, some of them ahead of it.

What was measured:
EGFR = test: Western blot degradation of EGFR (H1975 Cell); format: cell-based, Human; details: Table D2
Experimental: Conventional Western blot assay was performed to evaluate the effects of the compounds of the present disclosure on the expression of target proteins in cells.
(1) Cell Seeding and Protein Harvesting: The selected cells were processed according to the cell seeding procedure and protein harvesting procedure in Table III-2. Table III-2 Cell Seeding and Protein Harvesting Procedures
(2) To the collected supernatant, 5X SDS sample loading buffer was added, followed by denaturation at 95°C for 5 minutes. The denatured samples were then separated by SDS-PAGE electrophoresis on a polyacrylamide gel. Proteins were transferred to a nitrocellulose membrane (0.45 µm NC membrane), blocked with blocking buffer at room temperature for 1 hour, and subjected to antibody incubation and development procedures according to the antibody manufacturer's instructions (Cell Signaling Technology).
Half-Maximal Degradation Concentration value (the drug concentration required for degrading proteins by 50%, abbreviated as DC50) reads method: comparing the grayscale values of Western blot bands from drug-treated samples with those from blank DMSO-treated controls, and identifying the drug concentration range at which the grayscale value is half that of the DMSO-treated control bands.
DC50 values can be calculated using ImageJ software to measure grayscale values of Western blot bands from drug-treated samples. The concentration-response curve is fitted to estimate the drug concentration corresponding to half the grayscale value.
Target protein remaining (%) refers to the percentage of target protein remaining in hPBMC cells after treatment with protein degrader compounds.
Calculation method for target protein remaining (%): Use ImageJ software to measure grayscale values of Western blot bands from drug (protein degrader)-treated samples. The grayscale value of drug-treated bands is divided by that of internal control protein bands, and the resulting quotient is normalized to obtain the relative percentage of remaining target protein after protein degrader treatment.
Target protein degradation rate (%) = 100% - target protein remaining (%).

H1975 = test: CCK-8 proliferation, NCI-H1975 (H1975); format: cell-based, Human; details: Homo sapiens, NCI-H1975; CCK-8; 96 hours; read-out: Inhibitory activity (IC50) on tumor cell proliferation, H1975
Method in brief: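 Tumor cells were cultured at 37°C with 5% CO2, seeded, and after 24h treated with compounds at 10 concentrations starting at 10µM (5-fold serial dilutions).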

Compound: O=C1CCN(c2ccc(CN3CCN(c4ccc(-c5cc(F)c6c(c5)C(=O)N(C(C(=O)Nc5nccs5)c5ncn7c5CCC7)C6)cc4)CC3)cc2)C(=O)N1 (stereo not shown) [GT-06164, 2-(6,7-dihydro-5H-pyrrolo[1,2-c]imidazol-1-yl)-2-(6-(4-(4-(4-(2,4-dioxotetrahydropyrimidin-1(2H)-yl)benzyl)piperazin-1-yl)phenyl)-4-fluoro-1-oxoisoindolin-2-yl)-N-(thiazol-2-yl)acetamide]
Degradation of substrate protein EGFR (substrate protein remaining %) (EGFR): A (A is defined as 0% ≤ substrate protein remaining % ≤ 80%)
IC50 (H1975): 1 to 10 nM

Compound: O=C1CCC(c2ccc(CN3C[C@@H]4C[C@H]3CN4c3ccc(-c4cc(F)c5c(c4)C(=O)N(C(C(=O)Nc4nccs4)c4ncn6c4CCC6)C5)cc3)cc2)C(=O)N1 (stereo partly drawn) [GT-05115, 2-(6,7-dihydro-5H-pyrrolo[1,2-c]imidazol-1-yl)-2-(6-(4-((1S,4S)-5-(4-(2,6-dioxopiperidin-3-yl)benzyl)-2,5-diazabicyclo[2.2.1]heptan-2-yl)phenyl)-4-fluoro-1-oxoisoindolin-2-yl)-N-(thiazol-2-yl)acetamide]
Degradation of substrate protein EGFR (substrate protein remaining %) (EGFR): A (A is defined as 0% ≤ substrate protein remaining % ≤ 80%)
IC50 (H1975): 10 to 50 nM

Compound: O=C1CCN(c2ccc(CN3CCN(c4ccc(-c5cc(F)c6c(c5)C(=O)N(C(C(=O)Nc5nccs5)c5ncn7c5CCC7)C6)cc4)CC3)cn2)C(=O)N1 (stereo not shown) [GT-06166, 2-(6,7-dihydro-5H-pyrrolo[1,2-c]imidazol-1-yl)-2-(6-(4-(4-((6-(2,4-dioxotetrahydropyrimidin-1(2H)-yl)pyridin-3-yl)methyl)piperazin-1-yl)phenyl)-4-fluoro-1-oxoisoindolin-2-yl)-N-(thiazol-2-yl)acetamide]
Degradation of substrate protein EGFR (substrate protein remaining %) (EGFR): A (A is defined as 0% ≤ substrate protein remaining % ≤ 80%)
IC50 (H1975): 1 to 10 nM

Compound: O=C1CCC(c2ccc(CN3CCN(c4ccc(-c5cc(F)c6c(c5)C(=O)N(C(C(=O)Nc5nccs5)c5ncn7c5CCC7)C6)cc4)CC3)cc2)C(=O)N1 (stereo not shown) [GT-06163, 2-(6,7-dihydro-5H-pyrrolo[1,2-c]imidazol-1-yl)-2-(6-(4-(4-(4-(2,6-dioxopiperidin-3-yl)benzyl)piperazin-1-yl)phenyl)-4-fluoro-1-oxoisoindolin-2-yl)-N-(thiazol-2-yl)acetamide]
Degradation of substrate protein EGFR (substrate protein remaining %) (EGFR): A (A is defined as 0% ≤ substrate protein remaining % ≤ 80%)
IC50 (H1975): 1 to 10 nM

Compound: O=C1CCN(c2cccc(CN3CCN(c4ccc(-c5cc(F)c6c(c5)C(=O)N(C(C(=O)Nc5nccs5)c5ncn7c5CCC7)C6)cc4)CC3)c2)C(=O)N1 (stereo not shown) [GT-06165, 2-(6,7-dihydro-5H-pyrrolo[1,2-c]imidazol-1-yl)-2-(6-(4-(4-(3-(2,4-dioxotetrahydropyrimidin-1(2H)-yl)benzyl)piperazin-1-yl)phenyl)-4-fluoro-1-oxoisoindolin-2-yl)-N-(thiazol-2-yl)acetamide]
Degradation of substrate protein EGFR (substrate protein remaining %) (EGFR): A (A is defined as 0% ≤ substrate protein remaining % ≤ 80%)
IC50 (H1975): 1 to 10 nM

Compound: COC1CCN(c2nccc(Nc3cc4c(cn3)c(N3CCN(Cc5cccc(N6CCC(=O)NC6=O)c5)CC3)nn4C(C)C)n2)CC1 [GT-06038, 1-(3-((4-(1-isopropyl-6-((2-(4-methoxypiperidin-1-yl)pyrimidin-4-yl)amino)-1H-pyrazolo[4,3-c]pyridin-3-yl)piperazin-1-yl)methyl)phenyl)dihydropyr imidine-2,4(1H,3H)-dione]
Degradation of substrate protein EGFR (substrate protein remaining %) (EGFR): A (A is defined as 0% ≤ substrate protein remaining % ≤ 80%)

Compound: CCn1nc(N2CCC(N(C)Cc3ccc(N4CCC(=O)NC4=O)nc3)CC2)c2cnc(Nc3ccnc(-c4cnn(S(=O)(=O)C5CC5)c4)n3)cc21 [GT-06022, 1-(5-(((1-(6-((2-(1-(cyclopropylsulfonyl)-1H-pyrazol-4-yl)pyrimidin-4-yl)amino)-1-ethyl-1H-pyrazolo[4,3-c]pyridin-3-yl)piperidin-4-yl)(methyl)amino)methyl)pyridin-2-yl)dihydropyrimidine-2,4(1H,3H)-dione]
Degradation of substrate protein EGFR (substrate protein remaining %) (EGFR): A (A is defined as 0% ≤ substrate protein remaining % ≤ 80%)

Compound: CN(Cc1ccc(N2CCC(=O)NC2=O)cn1)C1CCN(c2ccc(Nc3ncc4nc(Nc5ccccc5)n(C5CCCC5)c4n3)cc2)CC1 [GT-07093, 1-(6-(((1-(4-((9-cyclopentyl-8-(phenylamino)-9H-purin-2-yl)amino)phenyl)piperidin-4-yl)(methyl)amino)methyl)pyridin-3-yl)dihydropyrimidine-2,4(1H,3H)-dione]
Degradation of substrate protein EGFR (substrate protein remaining %) (EGFR): A (A is defined as 0% ≤ substrate protein remaining % ≤ 80%)

Now from value to compound, other results behind:

IC50 (H1975): 1 to 10 nM
Compound: O=C1CCN(c2ccc(CN3CCN(C4CCN(c5ccc(-c6cc(F)c7c(c6)C(=O)N(C(C(=O)Nc6nccs6)c6ncn8c6CCC8)C7)cc5)CC4)CC3)nc2)C(=O)N1 (stereo not shown) [GT-06246, 2-(6,7-dihydro-5H-pyrrolo[1,2-c]imidazol-1-yl)-2-(6-(4-(4-(4-((5-(2,4-dioxotetrahydropyrimidin-1(2H)-yl)pyridin-2-yl)methyl)piperazin-1-yl)piperidin-1-yl)phenyl)-4-fluoro-1-oxoisoindolin-2-yl)-N-(thiazol-2-yl)acetamide]
Degradation of substrate protein EGFR (substrate protein remaining %) (EGFR): A (A is defined as 0% ≤ substrate protein remaining % ≤ 80%)

IC50 (H1975): 1 to 10 nM
Compound: O=C1CCN(c2cc(CN3C[C@H]4C[C@@H]3CN4c3ccc(-c4cc(F)c5c(c4)C(=O)N(C(C(=O)Nc4nccs4)c4ncn6c4CCC6)C5)cc3)c(F)cn2)C(=O)N1 (stereo partly drawn) [GT-07386, 2-(6,7-dihydro-5H-pyrrolo[1,2-c]imidazol-1-yl)-2-(6-(4-((1R,4R)-5-((2-(2,4-dioxotetrahydropyrimidin-1(2H)-yl)-5-fluoropyridin-4-yl)methyl)-2,5-diazabicyclo[2.2.1]heptan-2-yl)phenyl)-4-fluoro-1-oxoisoindolin-2-yl)-N-(thiazol-2-yl)acetamide]
Degradation of substrate protein EGFR (substrate protein remaining %) (EGFR): A (A is defined as 0% ≤ substrate protein remaining % ≤ 80%)

IC50 (H1975): 1 to 10 nM
Compound: O=C1CCN(c2cccc(CN3CCN(C4CCN(c5ccc(-c6cc(F)c7c(c6)C(=O)N(C(C(=O)Nc6nccs6)c6ncn8c6CCC8)C7)cc5)CC4)CC3)c2)C(=O)N1 (stereo not shown) [GT-06245, 2-(6,7-dihydro-5H-pyrrolo[1,2-c]imidazol-1-yl)-2-(6-(4-(4-(4-(3-(2,4-dioxotetrahydropyrimidin-1(2H)-yl)benzyl)piperazin-1-yl)piperidin-1-yl)phenyl)-4-fluoro-1-oxoisoindolin-2-yl)-N-(thiazol-2-yl)acetamide]
Degradation of substrate protein EGFR (substrate protein remaining %) (EGFR): A (A is defined as 0% ≤ substrate protein remaining % ≤ 80%)

IC50 (H1975): 10 to 50 nM
Compound: O=C1CCC(c2ccc(CN3CCC(N4CCN(c5ccc(-c6cc(F)c7c(c6)C(=O)N(C(C(=O)Nc6nccs6)c6ncn8c6CCC8)C7)cc5)CC4)CC3)cc2)C(=O)N1 (stereo not shown) [GT-06326, 2-(6,7-dihydro-5H-pyrrolo[1,2-c]imidazol-1-yl)-2-(6-(4-(4-(1-(4-(2,6-dioxopiperidin-3-yl)benzyl)piperidin-4-yl)piperazin-1-yl)phenyl)-4-fluoro-1-oxoisoindolin-2-yl)-N-(thiazol-2-yl)acetamide]
Degradation of substrate protein EGFR (substrate protein remaining %) (EGFR): A (A is defined as 0% ≤ substrate protein remaining % ≤ 80%)

IC50 (H1975): 1 to 10 nM
Compound: O=C1CCC(c2ccc(CN3C[C@H]4C[C@@H]3CN4c3ccc(-c4cc(F)c5c(c4)C(=O)N(C(C(=O)Nc4nccs4)c4ncn6c4CCC6)C5)cc3)nc2)C(=O)N1 (stereo partly drawn) [GT-07389, 2-(6,7-dihydro-5H-pyrrolo[1,2-c]imidazol-1-yl)-2-(6-(4-((1R,4R)-5-((5-(2,6-dioxopiperidin-3-yl)pyridin-2-yl)methyl)-2,5-diazabicyclo[2.2.1]heptan-2-yl)phenyl)-4-fluoro-1-oxoisoindolin-2-yl)-N-(thiazol-2-yl)acetamide]
Degradation of substrate protein EGFR (substrate protein remaining %) (EGFR): A (A is defined as 0% ≤ substrate protein remaining % ≤ 80%)

IC50 (H1975): 1 to 10 nM
Compound: O=C1CCN(c2ccc(CN3CCN(C4CCN(c5ccc(-c6cc(F)c7c(c6)C(=O)N(C(C(=O)Nc6nccs6)c6ncn8c6CCC8)C7)cc5)CC4(F)F)CC3)nc2)C(=O)N1 (stereo not shown) [GT-06319, 2-(6,7-dihydro-5H-pyrrolo[1,2-c]imidazol-1-yl)-2-(6-(4-(4-(4-((5-(2,4-dioxotetrahydropyrimidin-1(2H)-yl)pyridin-2-yl)methyl)piperazin-1-yl)-3,3-difluoropiperidin-1-yl)phenyl)-4-fluoro-1-oxoisoindolin-2-yl)-N-(thiazol-2-yl)acetamide]
Degradation of substrate protein EGFR (substrate protein remaining %) (EGFR): A (A is defined as 0% ≤ substrate protein remaining % ≤ 80%)
